In patent publication US20190060261A1, “ACTIVE COMBINATIONS OF PERILLIC ACID AND ACTIVITY ENHANCING SUBSTANCES” (B.R.A.I.N BIOTECHNOLOGY RESEARCH AND INFORMATION NETWORK AG, priority 2016, published 2019):
Converted amounts (≈) assume the structure as drawn.

Tests used:
Escherichia coli = experiment: Combination of substances with perillic acid: reduction of the MIC of perillic acid; format: cell-based; settings: test compound combined with perillic acid; experiments as in Example 1
Protocol: (§1) All experiments were done in 96-well plates in a final volume of 200 μL. Test solutions of the investigated compounds were prepared in 25 mM buffered water. The procedure was conducted as following: 4 μL of the particular stock solution were mixed with 196 μL culture medium containing a defined inoculum of the respective target strain. Sterile controls (not inoculated) and growth controls (buffer instead of compound added) were performed. All compound concentrations were tested in triplicate for several times. The following contamination germs were examined: Escherichia coli ATCC 8739, Pseudomonas aeruginosa ATCC 9027, Stapyhlococcus aureus ATCC®6538, Bacillus subtilis subsp. spizizenii ATCC®6633, Candida albicans ATCC®10231 and Aspergillus brasiliensis ATCC®16404. The strains were cultivated either in Mueller-Hinton II Bouillon (Escherichia coli, Pseudomonas aeruginosa, Staphylococcus aureus), in yeast peptone dextrose (Bacillus subtilis, Candida albicans) or in potato dextrose medium (Aspergillus brasiliensis). All culture media were buffered with 25 mM MES-buffer. For compound testing, the plates were incubated at 37° C. for Escherichia coli, Pseudomonas aeruginosa and Staphylococcus aureus, at 28° C. for Bacillus subtilis and Candida albicans, and at 25° C. for Aspergillus brasiliensis. Plates were evaluated after 24 h and 72 h, respectively. The minimal inhibitory concentration (MIC) is defined as the concentration where no microbial growth was observed after 24 h and 72 h incubation at the specified temperature.
(§2) Activity of perillic acid was comparably low against Gram-negative bacteria. It was thus tested whether the respective MIC could be reduced by combination of perillic acid with selected substances.
(§3) Experiments were performed as described for Example 1 above. A reduction factor was determined, expressing the reduction of the MIC of perillic acid that was achievable by combination with the combination partner. For example, a reduction factor of 2 means that the MIC of perillic acid was reduced by a factor of 2 by combination of perillic acid with the respective activity enhancing substance.

Pseudomonas aeruginosa = experiment: as above; format: cell-based; settings: test compound combined with perillic acid; experiments as in Example 1
Protocol: as §1, §2, §3

[1] = test system: Escherichia coli, Pseudomonas aeruginosa, Stapyhlococcus aureus, Candida albicans and Aspergillus brasiliensis; experiment: Conservation efficacy test according to DIN EN ISO 11930 in cosmetic formulation, all five test strains; format: cell-based; settings: cosmetic formulation (oil-water-emulsion), day 0 to day 28
Protocol: (§4) The composition of the formulations was in general as follows (ingredient amounts according to the FDA-code):
(§5) In order to confirm the activity against Gram-positive and Gram-negative bacteria, yeasts and moulds, conservation efficacy tests were performed according to DIN EN ISO 11930. The following classical contamination germs were examined: Escherichia coli (Ec in FIGS. 1 and 2) ATCC®8739, Pseudomonas aeruginosa (Pa in FIGS. 1 and 2) ATCC®9027, Stapyhlococcus aureus (Sa in FIGS. 1 and 2) ATCC®6538, Candida albicans (Ca in FIGS. 1 and 2) ATCC®10231 and Aspergillus brasiliensis (Ab in FIGS. 1 and 2) ATCC®16404. Media composition, incubation conditions and dilution procedures were all conducted according to the guidelines.
(§6) Data are presented as line graphs. […] The tested contamination germs are identified by different symbols as indicated in the diagrams with the following abbreviations: […]

[2] = test system: Escherichia coli ATCC 8739; experiment: Minimal inhibition concentration (MIC), microdilution method adapted from DIN EN ISO 20776-1:2006; format: cell-based; settings: Escherichia coli, ATCC8739; Mueller-Hinton II Bouillon, 25 mM MES-buffer, 37° C., no growth after 24 h and 72 h; read-out: MIC [A to D] Escherichia coli
Description: (§7) The antimicrobial activity of different substances was examined and compared to perillic acid in vitro using the microdilution method adapted from DIN EN ISO 20776-1:2006. Besides perillic acid and its sodium salt, other organic acids like levulinic acid, p-anisic acid, benzoic acid and sorbic acid as well as alkane-1,2-diols such as hexane-1,2-diol, octane-1,2-diol and decane-1,2-diol were studied. Additionally, the commonly used preservatives 2-phenoxyethanol, 2-phenylethanol and benzyl alcohol were investigated.
as §1
(§8) MIC-values are given according to the following letter code.

[3] = test system: Stapyhlococcus aureus ATCC®6538; experiment: Minimal inhibition concentration (MIC), microdilution method; format: cell-based, Staphylococcus aureus; settings: Mueller-Hinton II Bouillon, 25 mM MES-buffer, 37° C., no growth after 24 h and 72 h
Description: as §7, §1, §8

[4] = test system: Pseudomonas aeruginosa ATCC 9027; experiment: as above; format: cell-based; settings: Pseudomonas aeruginosa, ATCC9027; Mueller-Hinton II Bouillon, 25 mM MES-buffer, 37° C., no growth after 24 h and 72 h; read-out: MIC [A to D] Pseudomonas aeruginosa
Description: as §7, §1, §8

[5] = test system: Bacillus subtilis subsp. spizizenii ATCC®6633; experiment: as above; format: cell-based; settings: Bacillus subtilis, ATCC6633; yeast peptone dextrose, 25 mM MES-buffer, 28° C., no growth after 24 h and 72 h; read-out: MIC [A to D] Bacillus subtilis
Description: as §7, §1, §8

[6] = test system: Aspergillus brasiliensis ATCC®16404; experiment: as above; format: cell-based; settings: Aspergillus brasiliensis, ATCC16404; potato dextrose medium, 25 mM MES-buffer, 25° C., no growth after 24 h and 72 h; read-out: MIC [A to D] Aspergillus brasiliensis
Description: as §7, §1, §8

[7] = test system: Candida albicans ATCC®10231; experiment: as above; format: cell-based; settings: yeast peptone dextrose, 25 mM MES-buffer, 28° C., no growth after 24 h and 72 h
Description: as §7, §1, §8

[8] = test system: Pseudomonas aeruginosa ATCC®9027; experiment: Conservation efficacy test according to DIN EN ISO 11930 in cosmetic formulation; format: cell-based; settings: cosmetic formulation (oil-water-emulsion), day 0 to day 28
Protocol: as §4, §5, §6

[9] = test system: Candida albicans ATCC®10231; experiment: as above; format: cell-based; settings: cosmetic formulation (oil-water-emulsion), day 0 to day 28
Protocol: as §4, §5, §6

[10] = test system: Stapyhlococcus aureus ATCC®6538; experiment: as above; format: cell-based, Staphylococcus aureus; settings: cosmetic formulation (oil-water-emulsion), day 0 to day 28
Protocol: as §4, §5, §6

[11] = test system: Escherichia coli ATCC®8739; experiment: as above; format: cell-based; settings: cosmetic formulation (oil-water-emulsion), day 0 to day 28
Protocol: as §4, §5, §6

[12] = test system: Aspergillus brasiliensis ATCC®16404; experiment: as above; format: cell-based; settings: cosmetic formulation (oil-water-emulsion), day 0 to day 28
Protocol: as §4, §5, §6

Compound	Reduction factor (reduction of the MIC of perillic acid by combination with the test compound) Escherichia coli (Escherichia coli)	Reduction factor (reduction of the MIC of perillic acid by combination with the test compound) Pseudomonas aeruginosa (Pseudomonas aeruginosa)	criteria according to the guidelines for an adequate conservation (all five test strains) [1]	MIC [2]	MIC ([3]; Staphylococcus aureus, ATCC6538, read-out: MIC [A to D] Staphylococcus aureus)	MIC [4]	MIC [5]	MIC [6]	MIC [A to D] Candida albicans [7]	criteria for an adequate conservation against P. aeruginosa [8]	criteria for an adequate conservation against C. albicans [9]	MIC [A to D] Staphylococcus aureus [3]	criteria for an adequate conservation against S. aureus [10]	criteria for an adequate conservation against E. coli [11]	criteria for an adequate conservation against A. brasiliensis [12]
CC(=O)CCC(=O)O [Levulinic acid]	200	40	does not fulfill the criteria	1000 to 5000 µg/mL (≈ 8.61 to 43.1 mM)	1000 to 5000 µg/mL (≈ 8.61 to 43.1 mM)	1000 to 5000 µg/mL (≈ 8.61 to 43.1 mM)	5000 to 10000 µg/mL (≈ 43.1 to 86.1 mM)	1000 to 5000 µg/mL (≈ 8.61 to 43.1 mM)	A (MIC>1% (w/v))	–	–	–	–	–	–
CCCCCCC(O)CO (centres unmarked) [Octane-1,2-diol]	2000	2000	–	5000 to 10000 µg/mL (≈ 34.2 to 68.4 mM)	–	1000 to 5000 µg/mL (≈ 6.84 to 34.2 mM)	1000 to 5000 µg/mL (≈ 6.84 to 34.2 mM)	1000 to 5000 µg/mL (≈ 6.84 to 34.2 mM)	A (MIC>1% (w/v))	does not fulfill the criteria	does not fulfill the criteria	A (MIC>1% (w/v))	–	–	–
C=C(C)[C@@H]1CC=C(C(=O)O)CC1 [Perillic acid]	–	–	–	–	–	–	–	–	–	–	fulfills the criteria	–	fulfills the criteria	fulfills the criteria	fulfills the criteria
